Assay results published in ChEMBL document CHEMBL1201862, “PubChem BioAssay data set” (2004).
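Protocol summary: plate cells (96-well), add compound at 5 concentrations, incubate 48 h, interpolate endpoints linearly. GI50 marks 50% less growth.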 Calls of active or inactive are those of the source. Rule as the data show it: active = GI50 up to about 1.1 µM and inactive = higher. *1 amine or outer side, *2 acyl side, *3 side chain or, on linkers, in order; H or OH if unused. Where a SMILES comes first, the peptide text is derived from it. Square brackets hold non-standard residues; d marks the D form. Peptide text beside a SMILES is read from it. [ ]: non-standard residue; d: D form. The star is where a group is joined. * marks the point of attachment. ξ: configuration not given here. NMeY = CN[C@@H](Cc1ccc(O)cc1)C(=O)O; Ethylenediamine = C(CN[*:2])N[*:1]; ξNMeL = CNC(CC(C)C)C(=O)O; Cbz = O=C(OCc1ccccc1)*; Lac = C[C@H](O)C(=O)O; ξA = CC(N)C(=O)O

Legend:
Test in all cases: NCI-60 cell line screen, 48 h
DMS-273 = system: DMS-273
KM-20L2 = system: KM-20L2
BT-549 = system: BT-549
M19-MEL = system: M19-MEL
SNB-78 = system: SNB-78
HOP-18 = system: HOP-18
XF498 = system: XF498
LXFL 529 = system: LXFL 529
RXF 631 = system: RXF 631

Structure (SMILES): CO[C@H]1Nc2c(ccc(C)c2O)C(=O)N2C=C(/C=C/C(N)=O)C[C@@H]12 [ANTHRAMYCIN METHYL ETHER]
- GI50 (DMS-273): 0.0295 µM (active)
- GI50 (KM-20L2): 0.184 µM (active)
- GI50 (BT-549): 0.0143 µM (active)
- GI50 (M19-MEL): 0.0269 µM (active)
- GI50 (SNB-78): 0.0258 µM (active)
- GI50 (HOP-18): 0.444 µM (active)
- GI50 (XF498): < 0.01 µM (active)

Structure (SMILES): O=C(CC(=O)N1N=C(N(c2ccccc2)c2ccccc2)CC1c1ccccc1)Nc1cccc(Cl)c1 (stereo not given)
- GI50 (BT-549): > 100 µM (inactive)

Structure (SMILES): CC(=O)O[C@H]1CC[C@@]2(C)C(=CC[C@@H]3C2CC[C@]2(C)Nc4nc5ccccc5cc4CC32)C1 (stereo not given in full)
- GI50 (DMS-273): 4.82 µM (inactive)
- GI50 (KM-20L2): 1.77 µM (inactive)
- GI50 (LXFL 529): 3.38 µM (inactive)
- GI50 (M19-MEL): 3.59 µM (inactive)
- GI50 (SNB-78): 6.01 µM (inactive)
- GI50 (HOP-18): 3.94 µM (inactive)
- GI50 (XF498): 5.89 µM (inactive)

Structure (SMILES): CC(O)c1cc2c(s1)C(=O)c1sccc1C2=O (stereo not given)
- GI50 (BT-549): 0.0646 µM (active)

Structure (SMILES): COc1ccc(OC)c(/N=C/c2cc(OC)c(OC)c(OC)c2)c1
- GI50 (BT-549): > 78.9 µM (inactive)

Structure (SMILES): CCN1C(=O)C(=CN)C(=O)N(CC)C1=O
- GI50 (DMS-273): > 100 µM (inactive)
- GI50 (KM-20L2): > 100 µM (inactive)
- GI50 (LXFL 529): > 100 µM (inactive)
- GI50 (RXF 631): > 100 µM (inactive)
- GI50 (M19-MEL): > 100 µM (inactive)
- GI50 (SNB-78): > 100 µM (inactive)
- GI50 (HOP-18): 24.7 µM (inactive)

Structure (SMILES): COc1ccc(C2S/C(=C\c3ccc(OC)cc3OC)C(=O)N2NC(=O)Cc2ccccc2)cc1 (stereo not given)
- GI50 (DMS-273): > 100 µM (inactive)
- GI50 (LXFL 529): > 100 µM (inactive)
- GI50 (M19-MEL): > 100 µM (inactive)
- GI50 (HOP-18): > 100 µM (inactive)

Structure (SMILES): C=C1C(=O)O[C@H]2C1C[C@@H](OC(C)=O)/C(C)=C/CC[C@@]1(C)O[C@H]21 (stereo not given in full)
- GI50 (BT-549): 5.92 µM (inactive)

Structure (SMILES): COc1ccc(C[C@@H]2CN(C(=O)c3ccccc3)[C@H](Cc3ccc(O)cc3)CN2C(=O)c2ccccc2)cc1Br
- GI50 (BT-549): > 100 µM (inactive)

Structure (SMILES): NC(=O)C1CCCNC1 (stereo not given)
- GI50 (BT-549): > 100 µM (inactive)

Structure (SMILES): COc1cc(OC)c2c(c1)C(=O)C(CC(C)O)=CC2=O (stereo not given)
- GI50 (DMS-273): 16.6 µM (inactive)
- GI50 (KM-20L2): 17.2 µM (inactive)
- GI50 (LXFL 529): 13.2 µM (inactive)
- GI50 (M19-MEL): 3.42 µM (inactive)
- GI50 (SNB-78): 15.3 µM (inactive)
- GI50 (HOP-18): 16.7 µM (inactive)
- GI50 (XF498): 14 µM (inactive)

Structure (SMILES): COC(=O)C1=C(O)C(C(=O)OC)[C@]2(O)[C@H](C(=O)OC)[C@H]1C[C@@H](c1ccc(O)cc1)[C@H]2C(=O)OC (stereo not given in full)
- GI50 (BT-549): 26.2 µM (inactive)

Structure (SMILES): CC(C)(C)NC(=O)C12C3C4C1C1C2C3C41C(=O)NC(C)(C)C (stereo not given)
- GI50 (BT-549): > 100 µM (inactive)

Structure (SMILES): CN(C)/N=C(/c1nc2ccc([N+](=O)[O-])cc2nc1O)C(O)c1ccco1 (stereo not given)
- GI50 (DMS-273): 91 µM (inactive)
- GI50 (KM-20L2): 21 µM (inactive)
- GI50 (LXFL 529): 58.1 µM (inactive)
- GI50 (M19-MEL): > 100 µM (inactive)
- GI50 (SNB-78): > 100 µM (inactive)
- GI50 (XF498): > 100 µM (inactive)

Structure (SMILES): COc1ccc2c(c1)N=C1CSC(c3cccc(Br)c3)N1C2 (stereo not given)
- GI50 (BT-549): 12.4 µM (inactive)

Structure (SMILES): CC(=O)OC1C[C@@H](C)C2(C[C@H](O)c3ccoc3)C(=O)OC[C@]13C2CCC(O)C31CO1 (stereo not given in full)
- GI50 (BT-549): > 100 µM (inactive)

Structure (SMILES): Cc1c(C#N)c(N)n(C2OCC(O)C(O)C2O)c(=S)c1C#N (stereo not given)
- GI50 (BT-549): > 100 µM (inactive)

Structure (SMILES): CSc1c(CC(=O)O)n(Cc2ccccc2)c2ccccc12
- GI50 (BT-549): > 100 µM (inactive)

Structure (SMILES): COc1c(CC(C)=O)ccc2c1C(=O)c1ccc(C=O)c(OC(C)=O)c1C2=O
- GI50 (DMS-273): 10.2 µM (inactive)
- GI50 (KM-20L2): 14.9 µM (inactive)
- GI50 (LXFL 529): 5.53 µM (inactive)
- GI50 (RXF 631): 20.6 µM (inactive)
- GI50 (SNB-78): 18.2 µM (inactive)
- GI50 (HOP-18): 22.1 µM (inactive)

Structure (SMILES): COc1ccc(C[C@@H](C(=O)NCCNC(=O)C(CC(C)C)N(C)C(=O)[C@@H]2CCCN2C(=O)[C@H](C)O)N(C)C(=O)[C@@H]2CCCN2C(=O)[C@H](CC(C)C)NC(=O)C(C)NC(=O)OCc2ccccc2)cc1 (stereo not given in full) (Cbz-[ξA]LP[NMeY](Me)-{Ethylenediamine-ξNMeL-Pro-Lac})
- GI50 (BT-549): > 100 µM (inactive)

Structure (SMILES): CC1=CC(=O)/C(=C/NC(N)=S)C(=O)O1
- GI50 (BT-549): > 100 µM (inactive)

Structure (SMILES): Cc1[nH]c2ccccc2c1C1CC(=O)NC1=O (stereo not given)
- GI50 (DMS-273): > 100 µM (inactive)
- GI50 (KM-20L2): > 100 µM (inactive)
- GI50 (M19-MEL): > 100 µM (inactive)
- GI50 (SNB-78): > 100 µM (inactive)

Structure (SMILES): COC(=O)C1C(O)C(C)C(=O)C(C)/C=C\C=C(C)C(=O)Nc2c(C)c(OC(C)=O)c3c(c2O)C(=O)C(C)=C2OCOC(=C23)C(C)=CC(C)(O)C(O)C(C)C1O (stereo not given)
- GI50 (BT-549): 42 µM (inactive)

Structure (SMILES): NS(=O)(=O)c1ccc(Nc2c3ccccc3nc3c(C(=O)NCCCN(CCO)CCO)cccc23)cc1
- GI50 (BT-549): 20.4 µM (inactive)

Structure (SMILES): O=C1CC[C@@]2(O)[C@H]3Cc4ccc(-c5ccccc5)c5c4[C@@]2(CCN3CC2CC2)[C@H]1O5
- GI50 (BT-549): 14.3 µM (inactive)

Structure (SMILES): CC1CC(=O)N(N(C)C)C(C#N)(C#N)C1(C#N)C#N (stereo not given)
- GI50 (BT-549): 15.7 µM (inactive)

Structure (SMILES): O=C1CSC2(CC(/C=C/c3ccccc3O)=NN2c2cccc(S(=O)(=O)O)c2)N1c1nc2ccccc2s1 (stereo not given)
- GI50 (BT-549): 24.9 µM (inactive)

Structure (SMILES): C=C(CO)[C@H]1Oc2ccc(C(C)=O)cc2[C@@H]1O
- GI50 (BT-549): 33.2 µM (inactive)

Structure (SMILES): O=C(O)Cc1ccc(Nc2nc3cc(C(F)(F)F)ccc3nc2C(=O)O)cc1
- GI50 (BT-549): > 100 µM (inactive)

Structure (SMILES): COc1ccc(C[C@@H](C(=O)N[C@@H](C)C(N)=O)N(C)C(=O)[C@@H]2CCCN2C(=O)[C@H](CC(C)C)NC(=O)C(C)NC(=O)OCc2ccccc2)cc1 (stereo not given in full) (Cbz-[ξA]LP[NMeY](Me)A-NH2)
- GI50 (BT-549): > 100 µM (inactive)

Structure (SMILES): Nc1nc(O)c(Br)c(-c2cccc([N+](=O)[O-])c2)n1
- GI50 (BT-549): 38.6 µM (inactive)

Structure (SMILES): O=C1c2nn(-c3ccccc3)nc2C(c2ccccc2)N1c1ccccc1 (stereo not given)
- GI50 (DMS-273): > 100 µM (inactive)
- GI50 (KM-20L2): > 100 µM (inactive)
- GI50 (LXFL 529): > 100 µM (inactive)
- GI50 (M19-MEL): > 100 µM (inactive)
- GI50 (SNB-78): 28.1 µM (inactive)
- GI50 (HOP-18): > 100 µM (inactive)
- GI50 (XF498): > 100 µM (inactive)

Structure (SMILES): COC(=O)CCC(C)[C@H]1CCC2C3C(C[C@H](OC(C)=O)[C@@]21C)[C@@]1(C)CCC2(C[C@H]1C[C@H]3OC(C)=O)OOC1(CCCCC1)OO2 (stereo not given in full)
- GI50 (BT-549): 40.6 µM (inactive)

Structure (SMILES): COc1ccc(CCCCl)c(C2=NCCc3ccccc32)c1
- GI50 (BT-549): 33.3 µM (inactive)
